According to patent US11617814B2, “Methods of treatment comprising administering polymer particles configured for intravascular delivery of pharmaceutical agents” (TERUMO CORPORATION, priority 2016, dated 2023):

Assays:
[1] = In vivo elution: systemic concentration of oxaliplatin in plasma after embolization, LC/MS/MS; parameters: species or system pig
Protocol: (§1) Blood samples were obtained to determine the systemic concentration of oxaliplatin before embolization as well as 20, 40, 60, 120 and 180 minutes post-embolization. An additional blood sample was collected at sacrifice, which was at day 6 or day 7. Plasma was prepared by centrifugation and the samples were frozen at −80° C. until analysis.
Quantitation was done via LC/MS/MS using an Agilent 1260 Infinity HPLC system coupled with ABSciex 4000 Q Trap LC/MS/MS system. Chromatographic separation was performed using an Agilent Poroshell 120 C18 column (4.6 mm×50 mm, 2.7 μm) at 50° C. and mobile phase consisting of A: 0.1% formic acid in acetonitrile and B: 0.1% formic acid in water. At a flow rate of 500 μL/min, the chromatographic gradient was 0% buffer A from 0.0-2.5 min, 0-90% from 2.5-2.6 min, 90% from 2.6-4.1 min, 90-0% from 4.1-4.2 min, and 0% from 4.2-10.0 min. The divert valve was open from 1.4-2.7 min and 3.4-4.6 min. The plasma samples were purified by ultracentrifugation first and then solid phase extraction. Plasma sample, 500 μL, was loaded onto a 30K Nanosep Centrifuge Device and centrifuged to collect the plasma ultra-filtrate. The centrifugation was performed at 4° C., starting at 8,000 rcf for 30 mins, 9,000 rcf for 30 mins, and 10,000 rcf for 15 mins with an increment of 1,000 rcf every 15 mins until 13,000 rcf for 2 hrs and 15 mins. The collected plasma ultra-filtrate was diluted with 1:1 (v/v) ratio of acetonitrile containing 500 ppb of the internal standard, carboplatin. The mixture, 600 μL, was loaded onto a 1 mL HybridSPE-Phospholipid cartridge, which was placed in a 15 mL conical centrifuge tube and centrifuged at 4° C. at 1,000 rcf for 5 mins and then 4,000 rcf for 5 mins. The sample collected in the centrifuge tube was then transferred to an HPLC vial for analysis. Injection of 50 μL of the sample was performed. The calibration curve was prepared by spiking the blank plasma ultra-filtrate to a range from 5-2000 ppb. The systemic concentration of oxalipatin in plasma over time is illustrated in FIG. 3.

[2] = In vivo elution: systemic concentration of SN-38 in plasma after embolization, LC/MS/MS
Protocol: as §1, with “SN-38” for “oxaliplatin”, “6.” for “6 or day 7.”
Quantitation was done via liquid chromatography-tandem mass spectrometry (LC/MS/MS) using an Agilent 1260 Infinity HPLC system coupled with ABSciex 4000 Q Trap LC/MS/MS system. Chromatographic separation was performed using an Agilent Poroshell 120 C18 column (4.6 mm×50 mm, 2.7 μm) at 25° C. and mobile phases consisting of A: 0.1% formic acid in acetonitrile and B: 0.1% formic acid in water. At a flow rate of 1.0 mL/min, the chromatographic gradient was 27% buffer A from 0.0-0.3 min, 27-52% from 0.3-2.5 min, 52-80% from 2.5-2.6 min, 80% from 2.6-2.7 min, 80-27% from 2.7-2.8 min, 27% from 2.9-4.0 min. The plasma samples were precipitated with 3 fold excess (v/v) of acetonitrile containing 50 ppb of the internal standard, camptothecin. After being vortexed and centrifuged at 13,000 rpm at 4° C. for 10 minutes, 200 μL of the supernatant of each sample was diluted with 600 μL of 0.1% formic acid in water. Injection of 100 μL of the diluted sample was performed. The calibration curve was prepared by spiking blank plasma to a range from 2.5-500 ppb for SN-38. […]

[3] = Solubility of SN-38 in water, observed in the elution extract; format: physicochemical; details: yellow precipitate formed in the extract solution
Protocol: The kinetics of SN-38 elution from the preloaded particles is illustrated in FIG. 1. The theoretical amount of SN-38 tethered on the particles is 15 mg for 100 mg of particles assuming no loss of the drug during the preparation of the particles. Upon immersion in PBS, SN-38 was eluted slowly over a period of time. On day 8, there was approximately 3% of SN-38 eluted. The elution curve obtained is fairly close to a linear line over the period of 8 days with a steady daily release between 3-5% of loaded SN-38 indicating controlled release of SN-38 is achieved with the preloaded particles. The total amount of SN-38 eluted during the first 8 days was 34% of the theoretical amount.

| Compound | systemic concentration of oxaliplatin in plasma ([1]; each time point: pre-embolization, 20, 40, 60, 120, 180 min post-embolization and day 6 or 7, plasma ultra-filtrate, calibration 5-2000 ppb) | systemic concentration of oxaliplatin at day 6 ([1]; one sample pig, day 6) | time of highest systemic concentration of oxaliplatin ([1]; post embolization, one sample pig) [h] | systemic concentration of SN-38 in plasma ([2]; each time point: pre-embolization, 20, 40, 60, 120, 180 min post-embolization and day 6, calibration 2.5-500 ppb) | time of highest systemic concentration of SN-38 ([2]; post embolization, plasma) [h] | solubility of SN-38 in water [3] |
| --- | --- | --- | --- | --- | --- | --- |
| O=C1[O][Pt]2([NH][C@@H]3CCCC[C@H]3[NH]2)[O]C1=O [oxaliplatin] | lower than the lower limit of quantitation | close to pre-embolization | 3 | – | – | – |
| CCc1c2c(nc3ccc(O)cc13)-c1cc3c(c(=O)n1C2)COC(=O)[C@]3(O)CC [SN-38, 7-ethyl-10-hydroxy-camptothecin] | – | – | – | lower than the lower limit of quantitation | 3 | poor solubility |
